{
  "source": "patent US20050107353A1",
  "about": "“Methods of treating lower urinary tract disorders using losigamone” (Dynogen Pharmaceuticals, Inc., priority 2003, published 2005)",
  "key": {"[1]": {"tested_on": "acetic acid-induced reduction of bladder capacity", "assay": "Dilute acetic acid model: bladder capacity by filling cystometry during continuous intravesical acetic acid irritation", "assay_type": "in vivo, rat", "conditions": "for post-test: reversal of bladder capacity reduction: rats; for effect on bladder capacity (reversal of acetic acid-induced reduction): increasing doses, rats during continuous irritation", "from_the_text": "The objective of the current study was to determine the effect of TTX-R sodium channel modulators or use dependent sodium channel modulators on the ability to reverse the reduction in bladder capacity seen following continuous infusion of dilute acetic acid, a commonly used model of lower urinary tract disorders including overactive bladder.\nAnimal Preparation: Female rats (250-275 g BW) were anesthetized with urethane (1.2 g/kg) and a saline-filled catheter (PE-50) was inserted into either the jugular vein for intravenous (i.v.; saline vehicle) or the proximal duodenum for intraduodenal (i.d.; distilled water or 10% Tween 80 in saline as vehicle) drug administration. Via a midline lower abdominal incision, a flared-tipped PE 50 catheter was inserted into the bladder dome for bladder filling and pressure recording and secured by ligation. The abdominal cavity was moistened with saline and closed by covering with a thin plastic sheet in order to maintain access to the bladder for emptying purposes. Fine silver or stainless steel wire electrodes were inserted into the external urethral sphincter (EUS) percutaneously for electromyography (EMG).\nExperimental Design: Saline was continuously infused at a rate of 0.055 ml/min via the bladder filling catheter for ≧60 minutes to obtain a baseline of lower urinary tract activity (continuous cystometry; CMG). Following the control period, a 0.25% acetic acid solution in saline was infused into the bladder at the same flow rate to induce bladder irritation. Following 30 minutes of AA infusion, 3 vehicle injections were made at 20 minute intervals to determine vehicle effects, if any. Subsequently, increasing doses (2-5) of Na^+ channel blocking compound were administered intravenously or intraduodenaly at half-log order increments at 30 or 60 minute intervals in order to construct a cumulative dose-response relationship. At the end of the control saline cystometry period, the third vehicle, and 20-50 minutes following each subsequent treatment, the infusion pump was stopped, the bladder was emptied by fluid withdrawal via the infusion catheter and a single filling cystometrogram was performed at the same flow rate in order to determine changes in bladder capacity caused by the irritation protocol and subsequent intravenous or intraduodenal drug administration.\nData were analyzed by non-parametric ANOVA for repeated measures (Friedman Test) with Dunn's Multiple Comparison test. All comparisons were made from the last vehicle measurement (AA/Veh 3) or the lowest dose of drug. P<0.050 was considered significant."}, "[2]": {"biological_target": "T1, TTX-R sodium currents in bladder afferent neurons (Rattus norvegicus, UniProt Q62968)", "T1 construct": "Whole cell patch-clamp recordings were obtained from dye-labeled DRG neurons; endogenous in cells; host or cells: primary dissociated L6/S1 dorsal root ganglion neurons of Sprague-Dawley rats, dye-labelled bladder afferents", "T1 sequence (Q62968 whole entry)": "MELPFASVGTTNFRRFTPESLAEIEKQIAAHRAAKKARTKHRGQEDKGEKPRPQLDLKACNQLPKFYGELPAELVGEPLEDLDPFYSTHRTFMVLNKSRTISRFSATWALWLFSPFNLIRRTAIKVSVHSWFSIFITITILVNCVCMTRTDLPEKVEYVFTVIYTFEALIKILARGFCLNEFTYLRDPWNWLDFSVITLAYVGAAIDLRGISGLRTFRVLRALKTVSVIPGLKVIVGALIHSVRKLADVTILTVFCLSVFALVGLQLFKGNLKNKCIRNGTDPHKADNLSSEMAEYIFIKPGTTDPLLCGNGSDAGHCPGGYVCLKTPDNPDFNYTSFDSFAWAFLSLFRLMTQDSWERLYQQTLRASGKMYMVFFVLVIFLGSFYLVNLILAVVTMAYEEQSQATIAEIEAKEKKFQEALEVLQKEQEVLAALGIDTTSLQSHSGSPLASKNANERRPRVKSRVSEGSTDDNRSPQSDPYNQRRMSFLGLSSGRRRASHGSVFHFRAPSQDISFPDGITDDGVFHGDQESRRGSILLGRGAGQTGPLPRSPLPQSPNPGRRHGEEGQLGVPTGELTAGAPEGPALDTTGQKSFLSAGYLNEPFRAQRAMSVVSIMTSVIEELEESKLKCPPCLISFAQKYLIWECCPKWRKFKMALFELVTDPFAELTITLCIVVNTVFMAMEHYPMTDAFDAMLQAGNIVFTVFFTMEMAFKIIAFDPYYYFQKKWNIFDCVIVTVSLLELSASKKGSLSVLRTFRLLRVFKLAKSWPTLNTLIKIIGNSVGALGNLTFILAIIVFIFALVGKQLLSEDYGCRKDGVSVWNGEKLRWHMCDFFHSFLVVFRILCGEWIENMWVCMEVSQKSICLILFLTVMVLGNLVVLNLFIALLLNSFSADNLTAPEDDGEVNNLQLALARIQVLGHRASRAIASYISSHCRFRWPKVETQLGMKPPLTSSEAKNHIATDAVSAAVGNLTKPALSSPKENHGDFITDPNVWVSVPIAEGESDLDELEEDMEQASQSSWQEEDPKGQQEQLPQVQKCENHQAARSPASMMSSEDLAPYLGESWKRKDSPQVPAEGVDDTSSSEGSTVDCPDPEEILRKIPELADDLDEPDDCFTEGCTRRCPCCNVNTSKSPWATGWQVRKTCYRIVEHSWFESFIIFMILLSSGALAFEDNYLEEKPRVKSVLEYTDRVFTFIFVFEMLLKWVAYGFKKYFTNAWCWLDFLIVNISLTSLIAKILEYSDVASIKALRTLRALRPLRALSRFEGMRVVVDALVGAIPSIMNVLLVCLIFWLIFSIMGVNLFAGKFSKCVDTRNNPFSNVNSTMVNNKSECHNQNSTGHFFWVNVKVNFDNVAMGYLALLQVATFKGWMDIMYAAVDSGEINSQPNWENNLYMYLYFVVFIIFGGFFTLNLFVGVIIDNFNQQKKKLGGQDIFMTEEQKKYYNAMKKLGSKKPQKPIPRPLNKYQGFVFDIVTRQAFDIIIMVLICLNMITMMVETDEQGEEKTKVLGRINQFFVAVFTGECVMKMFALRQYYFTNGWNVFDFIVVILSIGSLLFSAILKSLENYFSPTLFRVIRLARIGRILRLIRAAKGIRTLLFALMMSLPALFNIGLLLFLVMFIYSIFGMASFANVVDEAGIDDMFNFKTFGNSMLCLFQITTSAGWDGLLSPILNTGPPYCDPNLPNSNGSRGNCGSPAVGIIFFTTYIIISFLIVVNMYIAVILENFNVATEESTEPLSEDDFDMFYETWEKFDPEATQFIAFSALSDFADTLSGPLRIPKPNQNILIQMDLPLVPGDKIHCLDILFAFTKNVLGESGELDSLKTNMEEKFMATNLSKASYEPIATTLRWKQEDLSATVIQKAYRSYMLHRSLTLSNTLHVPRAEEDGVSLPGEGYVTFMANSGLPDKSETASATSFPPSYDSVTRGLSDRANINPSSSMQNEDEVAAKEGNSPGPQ", "assay": "Bladder sensory neuron sodium channel current model: whole cell patch-clamp of TTX-R sodium currents", "assay_type": "cell-based", "experimental": "Labeling of bladder afferent neurons: Adult female Sprague-Dawley rats (150-300 g) were deeply anesthetized with pentobarbital anesthesia and placed on isoflurane maintenance anesthesia. A ventral midline incision was made through the abdominal skin and musculature, exposing the urinary bladder. Five injections of the fluorescent dye Di-I (5 μl each of 25 mg/ml Di-I in DMSO) or Fast Blue (4% w/v) were made into the bladder smooth muscle wall to label primary afferent fibers innervating the bladder. The area was rinsed with sterile saline to eliminate nonspecific spread of dye, and the incision was closed. Rats recovered for 5-12 days to allow for transport of fluorescent dye from distal terminals to the cell somata of dorsal root ganglion (DRG) neurons. Labeled neurons were identified in vitro using fluorescence optics.\nNeuronal cultures: Di-I injected rats were euthanized with pentobarbital anesthesia. Lumbar (L6) and sacral (S1) DRG were dissected from the vertebral column and placed in Dulbecco's modified Eagles medium (DMEM) containing 0.3% collagenase B for 60 min at 37° C. The cell solution was exchanged for a 0.25% trypsin in calcium/magnesium-free Dulbecco's phosphate-buffered saline solution, and further digested for 30 min at 37° C. Following a wash in fresh DMEM, ganglia were dissociated by a series of triturations using fire-polished Pasteur pipettes. DRG cells were plated on polylysine-treated glass coverslips. Cells were plated at a density of 0.5 DRG per coverslip in 1 ml DMEM supplemented with 10% FBS, NGF, and 100 U/ml penicillin/streptomycin. All experimental procedures involving rats were conducted under a protocol approved by an Institutional Animal Care and Use Committee. Small variations in the concentrations of reagents, incubation times, etc. may occur and are expected to give similar results.\nIn most experiments, neurons were incubated in culture medium containing the FITC-labeled lectin BSI-B4 (IB4, […]) at 37° C. for 5 min before recording. The coverslip was washed with extracellular recording solution for 1 min before being placed in a recording chamber mounted on the stage of an inverted microscope equipped with fluorescence optics.\nElectrophysiology: Electrophysiologic evaluation of neurons occurred within 4-48 h of plating. Whole cell patch-clamp recordings were obtained from dye-labeled DRG neurons. Recordings were obtained in an extracellular recording solution (pH 7.4, 295-320 mosM) consisting of (in mM) 140 NaCl, 3 KCl, 1 CaCl2, 1 MgCl2, 0.1 CdCl2, 10 HEPES, and 10 glucose. Patch-clamp electrodes were pulled from borosilicate glass and fire polished to 2-6 MOhm tip resistance. The internal pipette recording solution (pH 7.3, 290-300 mosM) consisted of (in mM) 140 CsCl, 10 NaCl, 1 EGTA, and 10 HEPES. Tetrodotoxin (TTX, 0.3 uM) was included in the extracellular solution to block TTX-sensitive sodium currents. Variations in the concentrations and types of reagents used for solutions may occur and are expected to give similar results.\nSodium currents were recorded from DRG neurons using standard electrophysiologic protocols. Neurons were typically voltage-clamped at −50 mV. Currents were recorded using a patch-clamp amplifier and digitized at 3-10 kHz for acquisition. Neuronal input resistance and membrane capacitance were determined from the amplitude and kinetics of the current response to a voltage pulse from a holding potential of −50 mV. Series resistance was compensated 75-95% for all recordings. Leak currents were cancelled online using a standard P/4 protocol. Depolarizing steps from −90, −70, or −50 mV to 0 mV were delivered every 5 or 30 sec during drug application to determine the effects of drugs on sodium currents. For all cell types, baseline responses were recorded for a minimum of 10 min to ensure that the kinetics of the response was stable. A wash out or recovery period usually followed the drug application period. […]"}},
  "note": "Entries after “also recorded” stand apart in the source; their conditions may differ. Counter-ions that a name gives are not always drawn.",
  "data": [
    {"smiles": "COC1=CC(=O)O[C@@H]1[C@@H](O)c1ccccc1Cl", "note": "(relative stereo) [Losigamone, (5R*)-5-[(alphaS*)-o-Chloro-alpha-hydroxybenzyl]-4-methoxy-2(5H)-furanone]", "values": [
      {"measurement": "post-test: reversal of bladder capacity reduction", "setting": "[1]; 300 mg/kg dose, intraduodenal", "result": "statistically significant reversal of bladder capacity reduction"},
      {"measurement": "effect on bladder capacity (reversal of acetic acid-induced reduction)", "setting": "[1]; intraduodenal", "result": "capable of partially reversing the reduction in bladder capacity caused by acetic acid in a dose-dependent fashion; also recorded: dose-dependent and statistically significant reversal"},
      {"measurement": "effect on bladder capacity (reversal of acetic acid-induced reduction)", "setting": "[1]; intraduodenal, listed as losigamone", "result": "dose-dependent, statistically significant increases in bladder capacity"}
    ]},
    {"smiles": "CC1(C)O[C@@H]2[C@@H](CO[C@@]3(COS(N)(=O)=O)OC(C)(C)O[C@@H]23)O1", "note": "[Topiramate, 2,3:4,5-Bis-O-(1-methylethylidene)-1-O-sulfamoyl-beta-D-fructopyranose]", "values": [
      {"measurement": "post-test: reversal of bladder capacity reduction", "setting": "[1]; 100 mg/kg dose, intraduodenal", "result": "statistically significant reversal of bladder capacity reduction"},
      {"measurement": "effect on bladder capacity (reversal of acetic acid-induced reduction)", "setting": "[1]; intraduodenal", "result": "capable of partially reversing the reduction in bladder capacity caused by acetic acid in a dose-dependent fashion; also recorded: dose-dependent and statistically significant reversal"},
      {"measurement": "effect on bladder capacity (reversal of acetic acid-induced reduction)", "setting": "[1]; intraduodenal, listed as topiramate", "result": "dose-dependent, statistically significant increases in bladder capacity"},
      {"measurement": "effect on inward TTX-R sodium current", "setting": "[2]; 30 μM bath application, 7 minute, holding potential −70 mV, pulse to +10 mV", "result": "blocked the current"}
    ]},
    {"smiles": "Cc1ccc(C(=O)C(C)CN2CCCCC2)cc1", "note": "(stereo not drawn) [Tolperisone]", "values": [
      {"measurement": "effect on bladder capacity (reversal of acetic acid-induced reduction)", "setting": "[1]; intravenous", "result": "Neither Vinpocetine (FIG. 9) nor intravenous Tolperisone (FIG. 10) demonstrated statistically significant effects on bladder capacity; also recorded: not capable of significantly reversing the reduction in bladder capacity caused by acetic acid"},
      {"measurement": "effect on bladder capacity (reversal of acetic acid-induced reduction)", "setting": "[1]; intravenous, listed as tolperisone", "result": "neither intraduodenal vinpocetine (n=6; 3-100 mg/kg) nor intravenous tolperisone (n=4; 3-10 mg/kg) demonstrated statistically significant effects on bladder capacity"}
    ]},
    {"smiles": "Nc1c(Br)cc(Br)cc1CNC1CCC(O)CC1", "note": "(stereo not drawn) [Ambroxol]", "values": [
      {"measurement": "post-test: reversal of bladder capacity reduction", "setting": "[1]; 300 mg/kg dose, intraduodenal", "result": "statistically significant reversal of bladder capacity reduction"},
      {"measurement": "effect on bladder capacity (reversal of acetic acid-induced reduction)", "setting": "[1]; intraduodenal", "result": "capable of partially reversing the reduction in bladder capacity caused by acetic acid in a dose-dependent fashion; also recorded: dose-dependent and statistically significant reversal"},
      {"measurement": "effect on bladder capacity (reversal of acetic acid-induced reduction)", "setting": "[1]; intraduodenal, listed as ambroxol", "result": "dose-dependent, statistically significant increases in bladder capacity"},
      {"measurement": "concentration-response effect on TTX-R sodium current amplitude", "setting": "[2]; bath application, cumulative concentrations, bladder afferent neurons", "result": "concentration-dependent reversible block; also recorded: reversible, concentration-dependent reduction in current amplitude"},
      {"measurement": "IC50", "setting": "[2]; three bladder afferent neurons, 2-3 minute application, TTX 300 nM present, read-out: estimated IC50 for block of TTX-R sodium currents", "result": "~15", "unit": "µM"}
    ]},
    {"smiles": "Cc1cccc(C)c1OCC(C)N", "note": "(stereo not drawn) [Mexiletine, 1-(2,6-Dimethylphenoxy)-2-propanamine hydrochloride]", "values": [
      {"measurement": "post-test: reversal of bladder capacity reduction", "setting": "[1]; 30 mg/kg dose, intraduodenal", "result": "statistically significant reversal of bladder capacity reduction"},
      {"measurement": "effect on bladder capacity (reversal of acetic acid-induced reduction)", "setting": "[1]; intraduodenal, hydrochloride", "result": "capable of partially reversing the reduction in bladder capacity caused by acetic acid in a dose-dependent fashion; also recorded: dose-dependent and statistically significant reversal"},
      {"measurement": "effect on bladder capacity (reversal of acetic acid-induced reduction)", "setting": "[1]; intraduodenal, listed as mexilitine, hydrochloride", "result": "dose-dependent, statistically significant increases in bladder capacity"}
    ]},
    {"smiles": "NC(=O)N1c2ccccc2C=Cc2ccccc21", "note": "[Carbamazepine]", "values": [
      {"measurement": "post-test: reversal of bladder capacity reduction", "setting": "[1]; 100 mg/kg dose, intraduodenal", "result": "statistically significant reversal of bladder capacity reduction"},
      {"measurement": "effect on bladder capacity (reversal of acetic acid-induced reduction)", "setting": "[1]; intraduodenal", "result": "capable of partially reversing the reduction in bladder capacity caused by acetic acid in a dose-dependent fashion; also recorded: dose-dependent and statistically significant reversal"},
      {"measurement": "effect on bladder capacity (reversal of acetic acid-induced reduction)", "setting": "[1]; intraduodenal, listed as carbamazepine", "result": "dose-dependent, statistically significant increases in bladder capacity"}
    ]},
    {"smiles": "C[C@H](NCc1ccc(OCc2ccccc2F)cc1)C(N)=O", "note": "[Ralfinamide, (+)-2(S)-[4-(2-Fluorobenzyloxy)benzylamino]propionamide]", "values": [
      {"measurement": "post-test: reversal of bladder capacity reduction", "setting": "[1]; 30 mg/kg dose, intraduodenal", "result": "statistically significant reversal of bladder capacity reduction"},
      {"measurement": "effect on bladder capacity (reversal of acetic acid-induced reduction)", "setting": "[1]; intraduodenal", "result": "capable of partially reversing the reduction in bladder capacity caused by acetic acid in a dose-dependent fashion; also recorded: dose-dependent and statistically significant reversal"},
      {"measurement": "effect on bladder capacity (reversal of acetic acid-induced reduction)", "setting": "[1]; intraduodenal, listed as ralfinamide", "result": "dose-dependent, statistically significant increases in bladder capacity"},
      {"measurement": "effect on inward TTX-R sodium current", "setting": "[2]; 100 μM bath application, labeled bladder afferent neuron", "result": "blocked the current"},
      {"measurement": "peak TTX-R sodium current", "setting": "[2]; 100 μM, three neurons, holding potential −50 mV, pulse to 0 mV", "result": "36±6 % of control"}
    ]},
    {"smiles": "CCOC(=O)C1=C[C@]2(CC)CCCN3CCc4c(n1c1ccccc41)[C@@H]32", "note": "[Vinpocetine]", "values": [
      {"measurement": "effect on bladder capacity (reversal of acetic acid-induced reduction)", "setting": "[1]; intraduodenal", "result": "not capable of significantly reversing the reduction in bladder capacity caused by acetic acid; also recorded: Neither Vinpocetine (FIG. 9) nor intravenous Tolperisone (FIG. 10) demonstrated statistically significant effects on bladder capacity"},
      {"measurement": "effect on bladder capacity (reversal of acetic acid-induced reduction)", "setting": "[1]; intraduodenal, listed as vinpocetine", "result": "neither intraduodenal vinpocetine (n=6; 3-100 mg/kg) nor intravenous tolperisone (n=4; 3-10 mg/kg) demonstrated statistically significant effects on bladder capacity"}
    ]}
  ]
}
